Test results: patent US20180273538A1, “PYRROLO[2,3-d]PYRIMIDINE DERIVATIVES, A PROCESS FOR THEIR PREPARATION AND PHARMACEUTICAL COMPOSITIONS CONTAINING THEM” (LES LABORATOIRES SERVIER, priority 2015, published 2018)

Tests used:
[1] = target: T1, His-TEV-DYRK1A Kinase domain (aa127-485) (Homo sapiens, UniProt Q13627); test: Kinase ADP assay (ADP Hunter Plus); type: biochemical
T1 construct: His-TEV-DYRK1A Kinase domain (aa127-485); His (N); TEV cleavage site (N)

DYRK1A = target: T2, DYRK1A (Homo sapiens, UniProt Q13627); test: Kinase TR-FRET assay, DYRK1A; type: biochemical
T2 construct: full-length human kinases from Carna Biosciences; purchased Carna Biosciences 04-130

DYRK1B = target: T3, DYRK1B (Homo sapiens, UniProt Q9Y463); test: Kinase TR-FRET assay, DYRK1B; type: biochemical
T3 construct: full-length human kinases from Carna Biosciences; purchased Carna Biosciences 04-131

phospho-Ser520-DYRK1A = target: T4, phospho-Ser520-DYRK1A (Homo sapiens, UniProt Q13627); test: Cellular DYRK1A autophosphorylation assay in U2-OS cells; type: cell-based; conditions: 5 hours exposure, read-out: IC50 (μM) P-Ser520-Dyrk1A-Cell assay
T4 construct: full-length, wild-type human DYRK1A (NM_001396) with an HA tag; expressed in transfected cells; host or cells: human U2-OS osteosarcoma cells, pcDNA3.1 plasmid

T3 sequence (Q9Y463 whole entry): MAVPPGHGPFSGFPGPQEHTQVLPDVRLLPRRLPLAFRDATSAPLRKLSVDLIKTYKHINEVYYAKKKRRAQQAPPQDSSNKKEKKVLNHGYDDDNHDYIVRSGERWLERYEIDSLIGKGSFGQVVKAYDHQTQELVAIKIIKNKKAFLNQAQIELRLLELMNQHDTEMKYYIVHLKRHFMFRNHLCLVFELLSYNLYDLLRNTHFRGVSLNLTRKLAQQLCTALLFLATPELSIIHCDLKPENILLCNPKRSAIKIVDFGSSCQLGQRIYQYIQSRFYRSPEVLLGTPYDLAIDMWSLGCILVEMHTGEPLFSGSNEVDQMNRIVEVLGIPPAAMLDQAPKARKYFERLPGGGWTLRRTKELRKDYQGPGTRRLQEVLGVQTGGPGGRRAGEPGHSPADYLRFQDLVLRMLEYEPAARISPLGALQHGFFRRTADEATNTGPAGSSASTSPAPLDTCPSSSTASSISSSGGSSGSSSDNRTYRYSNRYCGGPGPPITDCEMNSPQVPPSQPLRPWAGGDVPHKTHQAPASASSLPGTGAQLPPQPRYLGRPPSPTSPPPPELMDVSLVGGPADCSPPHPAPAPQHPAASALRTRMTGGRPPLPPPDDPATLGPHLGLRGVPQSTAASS

Structure (SMILES)	IC50 [1]	IC50 (DYRK1A)	IC50 (DYRK1B)	IC50 (phospho-Ser520-DYRK1A)
Cc1nc(OCC2CCCC2)c2c(-c3ccncc3)c[nH]c2n1 [Example 15, 4-(cyclopentylmethoxy)-2-methyl-5-(pyridin-4-yl)-7H-pyrrolo[2,3-d]pyrimidine]	0.032 µM	0.0355 µM	0.0143 µM	–
Cc1nc(OCc2ccc(C(C)C)cc2)c2c(-c3ccnc(N)c3)c[nH]c2n1 [Example 27, 4-{2-methyl-4-{(4-{propan-2-yl)benzyl]oxy}-7H-pyrrolo[2,3-d]pyrimidin-5-yl)pyridin-2-amine]	0.04 µM	0.0444 µM	0.0522 µM	–
Cc1cc(-c2c[nH]c3nc(C)nc(NCc4ccsc4)c23)ccn1 [Example 45, 2-methyl-5-(2-methylpyridin-4-yl)-N-(thiophen-3-ylmethyl)-7H-pyrrolo[2,3-d]pyrimidin-4-amine]	0.496 µM	0.2 µM	–	0.686 µM
Cc1nc(NCC2CCCCC2)c2c(-c3ccnc(N)c3)c[nH]c2n1 [Example 48, 5-(2-aminopyridin-4-yl)-N-(cyclohexylmethyl)-2-methyl-7H-pyrrolo[2,3-d]pyrimidin-4-amine]	0.044 µM	0.043 µM	–	0.208 µM
Cc1nc(NCc2ccccn2)c2c(-c3ccnc(N)c3)c[nH]c2n1 [Example 53, 5-(2-aminopyridin-4-yl)-2-methyl-N-(pyridin-2-ylmethyl)-7H-pyrrolo[2,3-d]pyrimidin-4-amine]	0.021 µM	0.0233 µM	–	0.238 µM
Cc1nc(NCc2ccc(F)cc2)c2c(-c3ccnc(N)c3)c[nH]c2n1 [Example 54, 5-(2-aminopyridin-4-yl)-N-(4-fluorobenzyl)-2-methyl-7H-pyrrolo[2,3-d]pyrimidin-4-amine]	0.032 µM	0.0129 µM	–	0.511 µM
Cc1nc(NCc2cc(C)on2)c2c(-c3ccnc(N)c3)c[nH]c2n1 [Example 59, 5-(2-aminopyridin-4-yl)-2-methyl-N-[(5-methyl-1,2-oxazol-3-yl)methyl]-7H-pyrrolo[2,3-d]pyrimidin-4-amine]	0.042 µM	0.0102 µM	0.0191 µM	0.259 µM
Cc1nc(NCC2CC2)c2c(-c3ccnc(N)c3)c[nH]c2n1 [Example 65, 5-(2-aminopyridin-4-yl)-N-(cyclopropymethyl)-2-methyl-7H-pyrrolo[2,3-d]pyrimidin-4-amine]	0.069 µM	0.0709 µM	–	0.898 µM
Cc1nc(NC(C)c2ccccn2)c2c(-c3ccnc(N)c3)c[nH]c2n1 (centres unmarked) [Example 66, 5-(2-aminopyridin-4-yl)-2-methyl-N-[1-(pyridin-2-yl)ethyl]-7H-pyrrolo[2,3-d]pyrimidin-4-amine]	0.045 µM	0.0107 µM	–	–
Cc1nc(NCc2cc(F)cc(F)c2F)c2c(-c3ccnc(N)c3)c[nH]c2n1 [Example 73, 5-(2-aminopyridin-4-yl)-2-methyl-N-(2,3,5-trifluorobenzyl)-7H-pyrrolo[2,3-d]pyrimidin-4-amine]	0.038 µM	0.0059 µM	–	–
Cc1nc(NCc2ccc(F)cc2C(F)(F)F)c2c(-c3ccnc(N)c3)c[nH]c2n1 [Example 75, 5-(2-ammopyridin-4-yl)-N-[4-fluoro-2-(trifluoromethyl)benzyl]-2-methyl-7H-pyrrolo[2,3-d]pyrimidin-4-amine]	0.037 µM	0.0143 µM	–	–
Cc1nc(NC(C)c2c(F)cccc2F)c2c(-c3ccnc(N)c3)c[nH]c2n1 (centres unmarked) [Example 82, 5-(2-aminopyridin-4-yl)-N-[1-(2,6-difluorophenyl)ethyl]-2-methyl-7H-pyrrolo[2,3-d]pyrimidin-4-amine]	0.045 µM	0.001 µM	0.0199 µM	–
Cc1nc(N[C@@H]2C[C@H]3CC[C@@H]2C3)c2c(-c3ccnc(N)c3)c[nH]c2n1 [Example 83, 5-(2-aminopyridin-4-yl)-N-[(1R,2R,4S)-bicyclo[2.2.1]hept-2-yl]-2-methyl-7H-pyrrolo[2,3-d]pyrimidin-4-amine]	0.081 µM	0.0006 µM	0.0404 µM	–
Cc1nc(NCc2ccccc2OC(F)(F)F)c2c(-c3ccnc(N)c3)c[nH]c2n1 [Example 89, 5-(2-aminopyridin-4-yl)-2-methyl-N-[2-(trifluoromethoxy)benzyl]-7H-pyrrolo[2,3-d]pyrimidin-4-amine]	0.077 µM	0.0492 µM	–	–
Cc1nc(NCc2c(C)noc2C)c2c(-c3ccnc(N)c3)c[nH]c2n1 [Example 95, 5-(2-aminopyridin-4-yl)-N-[(3,5-dimethyl-1,2-oxazol-4-yl)methyl]-2-methyl-7H-pyrrolo[2,3-d]pyrimidin-4-amine]	0.066 µM	0.0979 µM	–	0.534 µM
Cc1nc(Nc2ccc3c(c2)OCO3)c2c(-c3ccnc(N)c3)c[nH]c2n1 [Example 132, 5-(2-aminopyridin-4-yl)-N-(1,3-benzodioxol-5-yl)-2-methyl-7H-pyrrolo[2,3-d]pyrimidin-4-amine]	0.122 µM	0.0338 µM	–	–
N#Cc1nc(-c2ccc3c(c2)OCO3)c2c(-c3cc(N)nc(N)c3)c[nH]c2n1 [Example 158, 4-(1,3-benzodioxol-5-yl)-5-(2,6-diaminopyridin-4-yl)-7H-pyrrolo[2,3-d]pyrimidine-2-carbonitrile]	0.15 µM	0.0655 µM	–	–
C#Cc1cc(-c2ccc3c(c2)OCO3)c2c(-c3ccnc(N)c3)c[nH]c2n1 [Example 220, 4-[4-(1,3-benzodioxol-5-yl)-6-ethynyl-1H-pyrrolo[2,3-b]pyridin-3-yl]pyridin-2-amine]	0.034 µM	–	–	0.193 µM
N#Cc1cc(-c2ccc3c(c2)OCO3)c2c(-c3cc(N)nc(N)c3)c[nH]c2n1 [Example 224, 4-(1,3-benzodioxol-5-yl)-3-(2,6-diaminopyridin-4-yl)-1H-pyrrolo[2,3-b]pyridine-6-carbonitrile]	0.03 µM	–	–	0.225 µM

These reach a lower IC50 [1]. Values come first.

IC50 [1]	IC50 (DYRK1A)	IC50 (DYRK1B)	IC50 (phospho-Ser520-DYRK1A)	Structure (SMILES)
0.019 µM	–	–	0.103 µM	Nc1cc(-c2c[nH]c3nc(C#CC4CC4)cc(-c4ccc5c(c4)OCCO5)c23)ccn1 [Example 215, 4-[6-(cyclopropylethynyl)-4-(2,3-dihydro-1,4-benzodioxin-6-yl)-1H-pyrrolo[2,3-b]pyridin-3-yl]pyridin-2-amine]
0.019 µM	–	–	0.0325 µM	Nc1cc(-c2c[nH]c3nc(C#CC4CC4)cc(-c4ccc5c(c4)OCO5)c23)ccn1 [Example 219, 4-[4-(1,3-benzodioxol-5-yl)-6-(cyclopropylethynyl)-1H-pyrrolo[2,3-b]pyridin-3-yl]pyridin-2-amine]
0.016 µM	–	–	0.132 µM	C#Cc1cc(-c2ccc3c(c2)OCO3)c2c(-c3cc(N)nc(N)c3)c[nH]c2n1 [Example 221, 4-[4-(1,3-benzodioxol-5-yl)-6-ethynyl-1H-pyrrolo[2,3-b]pyridin-3-yl]pyridine-2,6-diamine]
0.015 µM	0.0094 µM	0.0005 µM	–	Cc1cc(-c2c[nH]c3nc(C)nc(OCc4ccsc4)c23)ccn1 [Example 5, 2-methyl-5-(2-methylpyridin-4-yl)-4-(thiophen-3-ylmethoxy)-7H-pyrrolo[2,3-d]pyrimidine]
0.015 µM	0.0059 µM	0.0093 µM	0.234 µM	Cc1nc(NCc2ccccc2C(F)(F)F)c2c(-c3ccnc(N)c3)c[nH]c2n1 [Example 64, 5-(2-aminopyridin-4-yl)-2-methyl-N-[2-(trifluoromethyl)benzyl]-7H-pyrrolo[2,3-d]pyrimidin-4-amine]
0.015 µM	–	–	0.0289 µM	Nc1cc(-c2c[nH]c3nc(C#CC4CC4)cc(-c4ccc5c(c4)OCO5)c23)cc(N)n1 [Example 218, 4-[4-(1,3-benzodioxol-5-yl)-6-(cyclopropylethynyl)-1H-pyrrolo[2,3-b]pyridin-3-yl]pyridine-2,6-diamine]
0.014 µM	0.0107 µM	–	0.0408 µM	Cc1nc(NCc2ccc(F)cc2F)c2c(-c3ccnc(N)c3)c[nH]c2n1 [Example 63, 5-(2-aminopyridin-4-yl)-N-(2,4-difluorobenzyl)-2-methyl-7H-pyrrolo[2,3-d]pyrimidin-4-amine]
0.013 µM	0.0197 µM	–	–	Cc1nc(OC(C)c2ccccc2)c2c(-c3ccnc(N)c3)c[nH]c2n1 (centres unmarked) [Example 20, 4-[2-methyl-4-(1-phenylethoxy)-7H-pyrrolo[2,3-d]pyrimidin-5-yl]pyridin-2-amine]
0.013 µM	0.0029 µM	–	0.126 µM	Cc1nc(NCc2ccccc2F)c2c(-c3ccnc(N)c3)c[nH]c2n1 [Example 51, 5-(2-aminopyridin-4-yl)-N-(2-fluorobenzyl)-2-methyl-7H-pyrrolo[2,3-d]pyrimidin-4-amine]
0.013 µM	0.021 µM	–	–	Cc1nc(NCc2ccc3cc[nH]c3c2)c2c(-c3ccnc(N)c3)c[nH]c2n1 [Example 72, 5-(2-aminopyridin-4-yl)-N-(1H-indol-6-ylmethyl)-2-methyl-7H-pyrrolo[2,3-d]pyrimidin-4-amine]
0.012 µM	0.0173 µM	0.0132 µM	–	Cc1nc(OCc2ccccc2)c2c(-c3ccncc3)c[nH]c2n1 [Example 11, 4-(benzyloxy)-2-methyl-5-(pyridin-4-yl)-7H-pyrrolo[2,3-d]pyrimidine]
0.011 µM	0.003 µM	–	0.0206 µM	Cc1nc(NCc2ncccc2C)c2c(-c3ccnc(N)c3)c[nH]c2n1 [Example 60, 5-(2-aminopyridin-4-yl)-2-methyl-N-[(3-methylpyridin-2-yl)methyl]-7H-pyrrolo[2,3-d]pyrimidin-4-amine]
0.008 µM	–	–	0.0442 µM	Cc1cc(-c2ccc3c(c2)OCO3)c2c(-c3ccnc(N)c3)c[nH]c2n1 [Example 222, 4-[4-(1,3-benzodioxol-5-yl)-6-methyl-1H-pyrrolo[2,3-b]pyridin-3-yl]pyridin-2-amine]
